From the supplement of paper PMC11061612

Legend:
Experiment in all cases: combination Emax (second highest fraction inhibited in the dose matrix, 72 h); higher = more inhibition; extreme values may be limits of the assay
[1] = system: NCI-H1155 (Non-Small Cell Lung Carcinoma)
Method in brief: (§1)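 Cell lines grown in DMEM/F12 or RPMI with 10% FBS were plated in 1536-well plates and held 24 hours at 37°C, 5% CO2 before 72 hours of exposure to two-drug dose matrices, with DMSO typically at 0.2%. CellTiter-Glo 2.0 luminescence gave viability, which was converted to inhibition. Vehicle wells were set to 0 and blank wells to 1. Combination Emax is the second-highest inhibition in the matrix, and Bliss excess is the observed combination effect minus the expected EA + EB − EA·EB, where EA and EB are the single-agent effects.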

[2] = system: RERF-LC-KJ (Lung Adenocarcinoma)
Method in brief: as §1

[3] = system: NCI-H1755 (Lung Adenocarcinoma)
Method in brief: as §1

[4] = system: RMG-I (Ovarian Carcinoma)
Method in brief: as §1

786-0 (Kidney Carcinoma) = system: 786-0 (Kidney Carcinoma)
Method in brief: as §1

[5] = system: NCI-H1563 (Lung Adenocarcinoma)
Method in brief: as §1

[6] = system: SJRH30 (Rhabdomyosarcoma)
Method in brief: as §1

[7] = system: Calu-6 (Non-Small Cell Lung Carcinoma)
Method in brief: as §1

[8] = system: AsPC-1 (Pancreatic Carcinoma)
Method in brief: as §1

[9] = system: Caov-3 (Ovarian Carcinoma)
Method in brief: as §1

[10] = system: KYSE-70 (Esophageal Squamous Cell Carcinoma)
Method in brief: as §1

[11] = system: EB-3 (Burkitt's Lymphoma)
Method in brief: as §1

[12] = system: LOUCY (T-Lymphoblastic Leukemia)
Method in brief: as §1

[13] = system: Becker (Low Grade Glioma)
Method in brief: as §1

[14] = system: HSC-3 (Oral Cavity Carcinoma)
Method in brief: as §1

RT4 (Bladder Carcinoma) = system: RT4 (Bladder Carcinoma)
Method in brief: as §1

[15] = system: BALL-1 (B-Lymphoblastic Leukemia)
Method in brief: as §1

[16] = system: AN3-CA (Endometrial Carcinoma)
Method in brief: as §1

[17] = system: OV-90 (Ovarian Carcinoma)
Method in brief: as §1

CHL-1 (Melanoma) = system: CHL-1 (Melanoma)
Method in brief: as §1

Row | Compound | combination Emax [1] | combination Emax [2] | combination Emax [3] | combination Emax [4] | combination Emax (786-0 (Kidney Carcinoma)) | combination Emax [5] | combination Emax [6] | combination Emax [7] | combination Emax [8] | combination Emax [9] | combination Emax [10] | combination Emax [11] | combination Emax [12] | combination Emax [13] | combination Emax [14] | combination Emax (RT4 (Bladder Carcinoma)) | combination Emax [15] | combination Emax [16] | combination Emax [17] | combination Emax (CHL-1 (Melanoma))
1 | CN(CCO)CC[C@H](CSc1ccccc1)Nc1ccc(S(=O)(=O)NC(=O)c2ccc(N3CCC([C@@H](O)c4ccccc4-c4ccc(Cl)cc4)CC3)cc2)cc1S(=O)(=O)C(F)(F)F [AZD4320] + C1CN(CCC1(C(=O)N[C@@H](CCO)C2=CC=C(C=C2)Cl)N)C3=NC=NC4=C3C=CN4 [Capivasertib] (first compound max 1 µM, 7x7, partner max 3 µM) | 0.904 | 0.293 | 0.303 | 0.708 | 0.402 | 0.389 | 0.427 | 0.448 | 0.643 | 0.363 | 0.167 | 0.191 | 1 | 0.298 | 0.53 | 0.144 | 1 | 0.625 | 0.717 | 0.0871
2 | CN(CCO)CC[C@H](CSc1ccccc1)Nc1ccc(S(=O)(=O)NC(=O)c2ccc(N3CCC([C@@H](O)c4ccccc4-c4ccc(Cl)cc4)CC3)cc2)cc1S(=O)(=O)C(F)(F)F [AZD4320] + C[C@@H](Nc1cc(F)cc(F)c1)c1cc(C(=O)N(C)C)cc2c(=O)cc(N3CCOCC3)oc12 [AZD8186] (first compound max 1 µM, 7x7, partner max 3 µM) | 0.97 | 0.431 | 0.45 | 0.868 | 0.415 | 0.565 | 0.457 | 0.592 | 0.739 | 0.911 | 0.211 | 0.332 | 1 | 0.431 | 0.711 | 0.583 | 1 | 0.624 | 0.795 | 0.408
3 | COc1cccc2c1C(=O)c1c(O)c3c(c(O)c1C2=O)C[C@@](O)(C(=O)CO)C[C@@H]3O[C@H]1C[C@H](N)[C@H](O)[C@H](C)O1 [Doxorubicin] + Cc1cc2ncnn2cc1Nc1ncc2c(n1)n(C1CCOCC1)c(=O)n2C [AZD7648] (first compound max 1 µM, 7x7, partner max 10 µM) | 0.916 | 0.711 | 0.776 | 0.599 | 0.82 | 0.58 | 0.925 | 0.516 | 0.267 | 0.826 | 0.502 | 0.919 | 0.943 | 0.555 | 0.702 | 0.867 | 0.99 | 0.501 | 0.569 | 0.767
4 | CCN(CCO)CCCOc1ccc2c(Nc3cc(CC(=O)Nc4cccc(F)c4)[nH]n3)ncnc2c1 [AZD2811] + C=CCn1c(=O)c2cnc(Nc3ccc(N4CCN(C)CC4)cc3)nc2n1-c1cccc(C(C)(C)O)n1 [AZD1775] (first compound max 1 µM, partner max 1 µM) | 0.45 | 0.312 | 0.76 | 0.256 | 0.546 | 0.245 | 0.827 | 0.727 | 0.293 | 0.846 | 0.549 | 0.62 | 1 | 0.167 | 0.492 | 0.408 | 0.986 | 0.308 | 0.654 | 0.658
5 | CC1(C)CCC(CN2CCN(c3ccc(C(=O)NS(=O)(=O)c4ccc(NCC5CCOCC5)c([N+](=O)[O-])c4)c(Oc4cnc5[nH]ccc5c4)c3)CC2)=C(c2ccc(Cl)cc2)C1 [Venetoclax] + CCN(CCO)CCCOc1ccc2c(Nc3cc(CC(=O)Nc4cccc(F)c4)[nH]n3)ncnc2c1 [AZD2811] (first compound max 1 µM, 7x7, partner max 1 µM) | 0.887 | 0.298 | 0.678 | 0.302 | 0.159 | 0.193 | 0.287 | 0.346 | 0.154 | 0.892 | 0.224 | 0.319 | 1 | 0.221 | 0.436 | 0.702 | 1 | 0.399 | 0.285 | 0.531
6 | COc1cccc(OCCCN)c1-c1cc(Nc2cnc(C#N)cn2)n[nH]1 [Prexasertib] + C[C@@H]1COCCN1C2=NC(=NC(=C2)C3(CC3)[S@](=N)(=O)C)C4=C5C=CNC5=NC=C4 [AZD6738] (first compound max 1 µM, 7x7, partner max 10 µM) | 0.93 | 0.278 | 0.912 | 0.629 | 0.901 | 0.262 | 0.943 | 0.772 | 0.416 | 0.785 | 0.602 | 0.83 | 1 | 0.733 | 0.731 | 0.555 | 0.998 | 0.821 | 0.548 | 0.884
7 | COc1cccc(OCCCN)c1-c1cc(Nc2cnc(C#N)cn2)n[nH]1 [Prexasertib] + Cc1cc2ncnn2cc1Nc1ncc2c(n1)n(C1CCOCC1)c(=O)n2C [AZD7648] (first compound max 1 µM, 7x7, partner max 10 µM) | 0.92 | 0.416 | 0.918 | 0.678 | 0.896 | 0.466 | 0.935 | 0.796 | 0.425 | 0.797 | 0.615 | 0.791 | 1 | 0.707 | 0.731 | 0.404 | 0.999 | 0.843 | 0.548 | 0.838
8 | CC1(C)CCC(CN2CCN(c3ccc(C(=O)NS(=O)(=O)c4ccc(NCC5CCOCC5)c([N+](=O)[O-])c4)c(Oc4cnc5[nH]ccc5c4)c3)CC2)=C(c2ccc(Cl)cc2)C1 [Venetoclax] + C[C@@H]1COCCN1C2=NC(=NC(=C2)C3(CC3)[S@](=N)(=O)C)C4=C5C=CNC5=NC=C4 [AZD6738] (first compound max 1 µM, 7x7, partner max 10 µM) | 0.829 | 0.313 | 0.828 | 0.545 | 0.712 | 0.307 | 0.864 | 0.801 | 0.264 | 0.794 | 0.433 | 0.6 | 1 | 0.656 | 0.548 | 0.612 | 1 | 0.653 | 0.533 | 0.879
9 | Cc1cc2ncnn2cc1Nc1ncc2c(n1)n(C1CCOCC1)c(=O)n2C [AZD7648] + O=C(c1cc(Cc2n[nH]c(=O)c3ccccc23)ccc1F)N1CCN(C(=O)C2CC2)CC1 [Olaparib] (first compound max 10 µM, 7x7, partner max 10 µM) | 0.293 | 0.241 | 0.263 | 0.192 | 0.101 | 0.331 | 0.0648 | 0.355 | 0.0586 | 0.28 | 0.124 | 0.377 | 0.444 | 0.12 | 0.15 | 0.28 | 0.826 | 0.304 | 0.238 | 0.134
10 | C=CCn1c(=O)c2cnc(Nc3ccc(N4CCN(C)CC4)cc3)nc2n1-c1cccc(C(C)(C)O)n1 [AZD1775] + O=C(c1cc(Cc2n[nH]c(=O)c3ccccc23)ccc1F)N1CCN(C(=O)C2CC2)CC1 [Olaparib] (first compound max 1 µM, partner max 10 µM) | 0.454 | 0.276 | 0.832 | 0.365 | 0.543 | 0.215 | 0.777 | 0.708 | 0.29 | 0.716 | 0.655 | 0.73 | 1 | 0.216 | 0.268 | 0.283 | 0.985 | 0.339 | 0.559 | 0.528
11 | Cc1cc2ncnn2cc1Nc1ncc2c(n1)n(C1CCOCC1)c(=O)n2C [AZD7648] + C=CCn1c(=O)c2cnc(Nc3ccc(N4CCN(C)CC4)cc3)nc2n1-c1cccc(C(C)(C)O)n1 [AZD1775] (first compound max 10 µM, partner max 1 µM) | 0.485 | 0.345 | 0.77 | 0.471 | 0.595 | 0.629 | 0.833 | 0.779 | 0.314 | 0.727 | 0.566 | 0.667 | 1 | 0.311 | 0.311 | 0.446 | 0.983 | 0.465 | 0.409 | 0.704
12 | Cc1cc2ncnn2cc1Nc1ncc2c(n1)n(C1CCOCC1)c(=O)n2C [AZD7648] + C[C@@H]1COCCN1C2=NC(=NC(=C2)C3(CC3)[S@](=N)(=O)C)C4=C5C=CNC5=NC=C4 [AZD6738] (first compound max 10 µM, 7x7, partner max 10 µM) | 0.746 | 0.349 | 0.883 | 0.53 | 0.694 | 0.498 | 0.801 | 0.741 | 0.369 | 0.773 | 0.414 | 0.663 | 1 | 0.607 | 0.405 | 0.488 | 0.986 | 0.435 | 0.489 | 0.798
